How the values were obtained:
Candida albicans (562) = experiment: MIC for yeast and yeast-like strains; format: cell-based; conditions: 48 hours, 35° C., read-out: Minimal Inhibitory Concentration (MIC)
Protocol: (§1) The following strains were used (the number of strains is in brackets): Candida (13); Criptococcus (2); Saccharormyces (1); Torulopsis (1).
(§2) Yeast Nitrogen Base supplemented with 0.15% asparagine and 1.0% glucose (as carbon source) was the medium utilized in the assays.
(§3) This medium was buffered with 0.165 M 2-(N-morpholino) propane sulfonic acid (MOPS), a non-chelating buffer. […]
(§4) The inoculum was prepared from an overnight broth culture (a 48-hour culture only for Cryptococcus) in Sabouraud broth and appropriately diluted to yield a final suspension containing approximately 5.0×10^6 Colony Forming Units per ml (CFU/ml), when compared to the Mc Farland's standard control (BRAY W. E., Clinical Laboratory Methods, 5th Ed. C. V. MOSBY, St. Louis, Mo, 1957).
(§5) After further diluting (1:50), a […] volume of such fungal suspensions and an equal volume of the substance solutions were distributed into each well of a microtiter plate (96 wells, round bottom). Such a procedure eventually allowed for an "in vitro" antimycotic activity assay utilizing final fungal inocula of approximately 5.0×10^4 CFU/ml.

Candida albicans (A 54) = experiment: MIC for yeast and yeast-like strains; format: cell-based; conditions: 48 hours, 35° C., read-out: Minimal Inhibitory Concentration (MIC)
Protocol: as §1, §2, §3, §4, §5

Candida krusei (ISS 1) = experiment: MIC for yeast and yeast-like strains; format: cell-based; conditions: Pichia kudriavzevii; 48 hours, 35° C.; read-out: Minimal Inhibitory Concentration (MIC)
Protocol: as §1, §2, §3, §4, §5

[1] = test system: Candida tropicalis (5705); experiment: MIC for yeast and yeast-like strains; format: cell-based; conditions: 48 hours, 35° C., read-out: Minimal Inhibitory Concentration (MIC)
Protocol: as §1, §2, §3, §4, §5

[2] = test system: Cryptococcus neoformans (4711); experiment: MIC for yeast and yeast-like strains; format: cell-based; conditions: 48 hours, 35° C., read-out: Minimal Inhibitory Concentration (MIC)
Protocol: as §1, §2, §3, §4, §5

[3] = test system: Saccharomyces cerevisiae (ATCC 7752); experiment: MIC for yeast and yeast-like strains; format: cell-based; conditions: ATCC7752, 48 hours, 35° C., read-out: Minimal Inhibitory Concentration (MIC)
Protocol: as §1, §2, §3, §4, §5

[4] = test system: Torulopsis candida (D.S.); experiment: MIC for yeast and yeast-like strains; format: cell-based; conditions: Suzukiozyma candida; 48 hours, 35° C.; read-out: Minimal Inhibitory Concentration (MIC)
Protocol: as §1, §2, §3, §4, §5

Candida albicans (PG) = experiment: MIC and MFC for yeast and yeast-like strains; format: cell-based; conditions: 48 hours, 35° C., read-out: Minimal Inhibitory Concentration (MIC)
Protocol: as §1, §2
(§6) This medium was buffered with 0.165 M 2-(N-morpholino) propane sulfonic acid (MOPS), a non-chelating buffer.
(§7) Antimicrob. Agents Cheroother. Aug. 34.8:1542-1545).
as §4, §5
(§8) The minimal fungicidal concentration was evaluated by spot-transferring onto Petri dishes, containing Sabouraud agar, 0.01-ml volumes of all the samples showing no visible fungal growth.

[5] = test system: Candida albicans (ATCC 2091); experiment: MIC for yeast and yeast-like strains; format: cell-based; conditions: ATCC2091, 48 hours, 35° C., read-out: Minimal Inhibitory Concentration (MIC)
Protocol: as §1, §2, §6, §7, §4, §5

Candida albicans (ISS 1) = experiment: MIC for yeast and yeast-like strains; format: cell-based; conditions: 48 hours, 35° C., read-out: Minimal Inhibitory Concentration (MIC)
Protocol: as §1, §2, §6, §7, §4, §5

Candida glabrata (ISS 1) = experiment: MIC for yeast and yeast-like strains; format: cell-based; conditions: Nakaseomyces glabratus; 48 hours, 35° C.; read-out: Minimal Inhibitory Concentration (MIC)
Protocol: as §1, §2, §6, §7, §4, §5

[6] = test system: Candida guilliermondii (ISS 1); experiment: MIC for yeast and yeast-like strains; format: cell-based; conditions: Meyerozyma guilliermondii; 48 hours, 35° C.; read-out: Minimal Inhibitory Concentration (MIC)
Protocol: as §1, §2, §6, §7, §4, §5

[7] = test system: Candida parapsilosis (ISS 1); experiment: MIC for yeast and yeast-like strains; format: cell-based; conditions: Lodderomyces parapsilosis; 48 hours, 35° C.; read-out: Minimal Inhibitory Concentration (MIC)
Protocol: as §1, §2, §6, §7, §4, §5

[8] = test system: Candida pseudotropicalis (EC 1); experiment: MIC for yeast and yeast-like strains; format: cell-based; conditions: Kluyveromyces marxianus; 48 hours, 35° C.; read-out: Minimal Inhibitory Concentration (MIC)
Protocol: as §1, §2, §6, §7, §4, §5

[9] = test system: Candida tropicalis (ISS 1); experiment: MIC for yeast and yeast-like strains; format: cell-based; conditions: 48 hours, 35° C., read-out: Minimal Inhibitory Concentration (MIC)
Protocol: as §1, §2, §6, §7, §4, §5

[10] = test system: Cryptococcus neoformans (ISS 1); experiment: MIC for yeast and yeast-like strains; format: cell-based; conditions: 48 hours, 35° C., read-out: Minimal Inhibitory Concentration (MIC)
Protocol: as §1, §2, §6, §7, §4, §5

yeast-like fungi = experiment: MIC / MFC for yeast-like fungi, all strains; format: cell-based, Candida, Cryptococcus, Saccharomyces, Torulopsis; conditions: versus susceptible strains; read-out: Mean MIC values
Protocol: as §1, §2, §3, §4, §5, §8

[11] = test system: Aspergillus fumigatus (1/A); experiment: MIC for filamentous fungi; format: cell-based; conditions: read-out: Minimal Inhibitory Concentration (MIC)
Excerpt: (§9) The following strains were used (the number of strains is in brackets): Aspergillus (5); Fusarium (1); Mucor (1); Penicillium (1).
(§10) The tested substances were: ST 712, ST 722, ST 982, ST 983, ST 1000, ST 1001, ST 1032, ST 1033, ST 1034, ST 1036, ST 1037, ST 1038, ST 1050, ST 1051, ST 1052, ST 1053. The assay medium was the same as the one used in the previous study. The conidia from 72-hour cultures in Sabouraud agar, collected by washing with Sabouraud medium and Tween 80 (one drop of Tween per 10 ml of medium), were utilized as inoculum (5.0×10^4 CFU/ml).
(§11) The assay was performed using the same procedure as described for yeast-like fungi.
(§12) Also the evaluation of MIC and MFC was as reported previously.

[12] = test system: Aspergillus fumigatus (2/A); experiment: MIC for filamentous fungi; format: cell-based; conditions: read-out: Minimal Inhibitory Concentration (MIC)
Excerpt: as §9, §10, §11, §12

[13] = test system: Aspergillus fumigatus (ATCC 28212); experiment: MIC for filamentous fungi; format: cell-based; conditions: ATCC28212, read-out: Minimal Inhibitory Concentration (MIC)
Excerpt: as §9, §10, §11, §12

[14] = test system: Aspergillus fumigatus (C/1); experiment: MIC for filamentous fungi; format: cell-based; conditions: read-out: Minimal Inhibitory Concentration (MIC)
Excerpt: as §9, §10, §11, §12

[15] = test system: Aspergillus niger (ATCC 16404); experiment: MIC for filamentous fungi; format: cell-based; conditions: ATCC16404, read-out: Minimal Inhibitory Concentration (MIC)
Excerpt: as §9, §10, §11, §12

Fusarium sp. (ISS 1) = experiment: MIC for filamentous fungi; format: cell-based; conditions: read-out: Minimal Inhibitory Concentration (MIC)
Excerpt: as §9, §10, §11, §12

Mucor mucedo (ATCC 7941) = experiment: MIC for filamentous fungi; format: cell-based; conditions: ATCC7941, read-out: Minimal Inhibitory Concentration (MIC)
Excerpt: as §9, §10, §11, §12

Penicillium sp. (1302) = experiment: MIC for filamentous fungi; format: cell-based; conditions: read-out: Minimal Inhibitory Concentration (MIC)
Excerpt: as §9, §10, §11, §12

filamentous fungi = experiment: MIC / MFC for filamentous fungi, all strains; format: cell-based, Aspergillus, Fusarium, Mucor, Penicillium; conditions: versus susceptible strains; read-out: Mean MIC values
Excerpt: as §9, §10, §11, §12

[16] = test system: Epidermophyton floccosum (IHEM 3495); experiment: MIC for dermatophytic fungi; format: cell-based; conditions: 35° C., 96 hours, read-out: Minimal Inhibitory Concentration (MIC)
Protocol: (§13) The following strains were used: Trichophyton menthagrophytes ATCC 9533, Trichophyton rubrum IHEM 4274, Microsporum canis IHEM 3522, Epydermophyton floccosum IHEM 3495. The tested substances were: ST 722, ST 1033, ST 1037, ST 1050, ST 1051, ST 1052,. ST 1053.
(§14) The assay was performed following the same procedure described for the yeasts, by using 7-day fungi cultures grown at 30° C. in Potato Dextrose agar, and harvested with Sabouraud broth and Tween 80 (0.5%).
(§15) After washing with Yeast Nitrogen Base, supplemented with asparagine and glucose (as carbon source), the fungal suspension was fragmented using a tissue grinder until the largest clumps or aggregates were undetectable within the grinder. This fungal suspension was then appropriately diluted in YNB to yield a concentration of 2.0×10^5 infective particles/ml (small mycelium fragments, micro-and macroaleuriospores).
(§16) Volumes of 100 μl both of the fungal suspensions and substance solutions, two-fold serially diluted in assay medium, were distributed into each well of a microtiter plate (96 wells, round bottom), which was incubated at 35° C. for 96 hours.

[17] = test system: Microsporum canis (IHEM 3522); experiment: MIC for dermatophytic fungi; format: cell-based; conditions: 35° C., 96 hours, read-out: Minimal Inhibitory Concentration (MIC)
Protocol: as §13, §14, §15, §16

[18] = test system: Trichophyton menthagrophites (ATCC 9533); experiment: MIC for dermatophytic fungi; format: cell-based; conditions: ATCC9533, 35° C., 96 hours, read-out: Minimal Inhibitory Concentration (MIC)
Protocol: as §13, §14, §15, §16

[19] = test system: Trichophyton rubrum (IHEM 4274); experiment: MIC for dermatophytic fungi; format: cell-based; conditions: 35° C., 96 hours, read-out: Minimal Inhibitory Concentration (MIC)
Protocol: as §13, §14, §15, §16

dermatophytic fungi = experiment: MIC / MFC for dermatophytic fungi, all strains; format: cell-based, Trichophyton, Microsporum, Epidermophyton; conditions: versus susceptible strains
Protocol: as §13, §14, §15, §16

Measured: MIC

CCCCCCCCCCCCCOC(=O)C[C@H](C[N+](C)(C)C)OC(=O)CC(C)C [ST 1033]
12.5 µg/mL: [18] | dermatophytic fungi
1.56 µg/mL: Candida albicans (562) | Candida albicans (A 54) | Candida albicans (ISS 1) | [10]
3.9 µg/mL: filamentous fungi
0.78 µg/mL: [2]
6.25 µg/mL: [6] | [15] | Mucor mucedo (ATCC 7941) | [17] | [19]
25 µg/mL: [16]
2.7 µg/mL: yeast-like fungi
3.12 µg/mL: all other assays above

— US5525627A, “Esters of acyl carnitines with long-chain aliphatic alcohols and pharmaceutical compositions containing same having antimycotic activity” (Sigma-Tau Industrie Farmaceutiche Riunite S.p.A., priority 1992, dated 1996)
